Assay results taken from patent publication US20040058983A1, “Plan-derived and synthetic phenolic compounds and plant extracts, effective in the treatment and prevention of chlamydial infections” (priority 2000, published 2004).
Read-outs that look alike come from different tables or passages of the source.

Legend:
C. pneumoniae = test: Direct anti-chlamydial effect of compounds and mixtures on C. pneumoniae (Example 5); format: cell-based; settings: for inhibition at 50 µM: Chlamydia pneumoniae
Experimental: Direct Anti-Chlamydial Effect of Plant-Derived Phenolic Compounds, Certain Synthetic Compounds and Mixtures on C. pneumoniae
The concentration used was 50 μM.
The cultivated HL cells are infected with C. pneumoniae EB's. The EB's which have invaded the cell are changed into the metabolically active reticulate body (RB) which are dividing by binary fission in the endosome vacuole or inclusion.
After a certain time (about 72 hr) the C. pneumoniae RB's are condensing back into EB's, after which the inclusions are broken, the host cells are broken and the EB's are liberated. In this method the intention is to verify the inclusions before the breaking up of the host cells.
On the day preceding the infection the host cells are inoculated on a 24-well plate: the cells are harvested by trypsinisation, they are suspended in ca. 5 ml of the nutrition liquid and counted in a Burker's chamber. Each well are seeded using a concentration of 250000-400000 cells/well for cultivation. Before the addition of the cells to the well is if necessary round cover glass (diameter 13 mm) put for staining. Nutrition liquid is added so that the volume is 1 ml/well. On the following day the cells are infected with the desired bacterium.
Solution to be used in the infection and containing chlamydiae particles is mixed throughout. The old nutrition liquid is aspirated away. By the infection the inoculum which has been stored at −70° C. is diluted to an IFU concentration of ca. 10^3 so that the volume of the solution is at least 200 μl/well on a 24-well plate. The cells are infected by centrifuging at 1600 rpm (550×g)/1 hr. The nutrition medium is aspirated away and changed to a maintenance medium containing cyclohexamide and also containing the studied compound (DMSO concentration 0.2%), 1 ml/well. The cells are incubated in a 5% CO2 atmosphere at +35° C. The cells infected with C. pneumoniae are incubated for 3 days. After 2-3 days the maintenance medium is removed and the cells washed with 1×1 ml of PBS. To the wells 200 μl of SPG are added for further infection, harvested with a pipette tip and transferred into tubes. This is used for infecting new cells in the same way as above to test the inhibition of infectivity (chlamydiasidic effect).
The nutrition medium, which is above the cover glass left for staining, is aspirated away. The infected cells are fixed on the cover glass with methanol for 10 min. The cover glass is removed from the well and -transferred onto a suitable fluorescein-conjugated monoclonal antibody on Parafilm in a moist chamber with the cell-containing side down. The cover glass is incubated for 30 min at +37° C. and washed twice with PBS and once with water. Finally it is dried. The cover glass is put with the cell-containing side down on an object glass containing a fixative (e.g. Mounting medium). When viewed under the fluorescent microscope, cell culture specimens infacted with chlamydiae show a characteristic apple-green fluorescence of inclusions against a red counterstained background.

[1] = Antioxidant effect, IC50 against DPPH; format: biochemical; settings: read-out: IC50 [moles L^−1] against DPPH′
Source text: (§1) In the following Table I some of the preferred plant-derived phenolic compounds according to the present invention, the effect of the compounds on the calcium influx to the cell, the antioxidant effect as well as the chemical structure of the compounds are presented.

Ca^2+ intake in the cell = test: Effect of the compounds on the calcium influx (Ca2+ intake) to the cell; format: cell-based; settings: compound 20 μg/ml; − = decrease, + = increase
Source text: as §1

| Compound | Inhibition % (C. pneumoniae; 50 μM) | inhibition at 50 µM (C. pneumoniae; 50 μM, read-out: Inhibition %) | IC50 [1] | further results |
| --- | --- | --- | --- | --- |
| COc1ccccc1-c1cc(=O)c2ccc3ccccc3c2o1 [2′-methoxy-α-naphtoflavone] | 100% |  |  |  |
| O=c1oc2cc(O)ccc2cc1-c1nc2ccccc2o1 [3-(2-benzoxazoyl)umbelliferone] | 28% |  |  |  |
| CC(=O)CC(c1ccccc1)c1c(O)c2ccccc2oc1=O (stereo not drawn) [3-(α-acetonylbenzyl)-4-hydroxycoumarin] |  | 0% |  |  |
| O=C(c1ccccc1)c1cc2c(ccc3ccccc32)oc1=O [3-benzoylbenzo(F)coumarin] | 62% |  |  |  |
| Cc1c(-c2ccccc2)c(=O)oc2ccccc12 [4-methyl-3-phenylcoumarin] |  | 0% |  |  |
| COc1ccc2oc(-c3ccccc3OC)cc(=O)c2c1 [6,2′-dimethoxyflavone] |  | 73% |  |  |
| O=C(O)c1cc2cc(Br)cc(Br)c2oc1=O [6,8-dibromocoumarin-3-carboxylic acid] |  | 0% |  |  |
| Cc1ccc2oc(=O)ccc2c1 [6-methylcoumarin] |  | 71% |  |  |
| CCN(CC)c1ccc2cc(C(=O)c3cccs3)c(=O)oc2c1 [7-diethylamino-3-thenoylcoumarin] | 100% |  |  |  |
| Oc1cc(O)c2c(c1)O[C@H](c1ccc(O)c(O)c1)[C@@H](O)C2 [(+)-Catechin] | 76% |  |  |  |
| O=C(O[C@@H]1Cc2c(O)cc(O)cc2O[C@@H]1c1ccc(O)c(O)c1)c1cc(O)c(O)c(O)c1 [(−)-Epicatechin gallate] | 85% |  |  |  |
| Oc1cc(O)c2c(c1)O[C@H](c1ccc(O)c(O)c1)[C@H](O)C2 [(−)-Epicatechin] | 75% |  |  |  |
| Oc1cc(O)c2c(c1)O[C@H](c1cc(O)c(O)c(O)c1)[C@H](O)C2 [(−)-Epigallocatechin] | 58% |  |  |  |
| COc1ccc(-c2cc(=O)c3c(O)cc(O)cc3o2)cc1 [Acacetin] |  |  | > 3520 µM | Effect on Ca^2+ intake [%] (Ca^2+ intake in the cell): −1.39% |
| O=c1cc(-c2ccccc2)oc2c1ccc1ccccc12 [Alpha-naphtoflavone] | 92% |  |  |  |
| O=c1cc(-c2ccc(O)cc2)oc2cc(O)cc(O)c12 [Apigenin] |  | 100% | > 3700 µM | inhibition at 20 µg/mL (Ca^2+ intake in the cell): 29.3% |
| O=C(O)c1ccccc1 [Benzoic acid] | 44% |  | > 8190 µM | Effect on Ca^2+ intake [%] (Ca^2+ intake in the cell): −9.82% |
| O=C(O)/C=C/c1ccc(O)c(O)c1 [Caffeic acid] |  | 78% | 21.4 µM | inhibition at 20 µg/mL (Ca^2+ intake in the cell): -9.71% |
| CCN(CC)c1ccc2cc(-c3nc4ccccc4n3C)c(=O)oc2c1 [Coumarin 30] | 50% |  |  |  |
| Cc1cc(=O)oc2c3c4c(cc12)CCCN4CCC3 [Coumarin 102] | 63% |  |  |  |
| O=c1oc2c3c4c(cc2c2c1CCC2)CCCN4CCC3 [Coumarin 106] | 100% |  |  |  |
| O=c1ccc2ccccc2o1 [Coumarin] |  | 28% |  |  |
| O=c1c(-c2ccc(O)cc2)coc2cc(O)ccc12 [Daidzein] | 51% |  | > 3930 µM | Effect on Ca^2+ intake [%] (Ca^2+ intake in the cell): −26.2% |
| O=c1c(-c2ccc(O)cc2)coc2cc(O[C@@H]3O[C@H](CO)[C@@H](O)[C@H](O)[C@H]3O)ccc12 [Daidzin] | 0% |  |  | Effect on Ca^2+ intake [%] (Ca^2+ intake in the cell): +7.6% |
| CCCCCCCCCCCCOC(=O)c1cc(O)c(O)c(O)c1 [Dodecyl gallate] |  | 100% | 15.4 µM | inhibition at 20 µg/mL (Ca^2+ intake in the cell): 40.4% |

| Compound | Inhibition % (C. pneumoniae; 50 μM) | inhibition at 50 µM (C. pneumoniae; 50 μM, read-out: Inhibition %) | IC50 [1] | further results |
| --- | --- | --- | --- | --- |
| COc1cc(/C=C/C(=O)O)ccc1O [Ferulic acid] |  | 14% | 44.3 µM | inhibition at 20 µg/mL (Ca^2+ intake in the cell): -9.23% |
| O=c1cc(-c2ccccc2)oc2ccccc12 [Flavone] |  | 90% | > 4500 µM | inhibition at 20 µg/mL (Ca^2+ intake in the cell): 63.5% |
| O=C(O)c1cc(O)c(O)c(O)c1 [Gallic acid] |  | 27% | 21.5 µM | inhibition at 20 µg/mL (Ca^2+ intake in the cell): 5.33% |
| O=c1c(-c2ccc(O)cc2)coc2cc(O)cc(O)c12 [Genistein] |  | 60% | > 3700 µM | inhibition at 20 µg/mL (Ca^2+ intake in the cell): 54.6% |
| O=c1c(-c2ccc(O)cc2)coc2cc(O[C@@H]3O[C@H](CO)[C@@H](O)[C@H](O)[C@H]3O)cc(O)c12 [Genistin] |  | 37% |  | inhibition at 20 µg/mL (Ca^2+ intake in the cell): 3.39% |
| COc1cc(-c2oc3cc(O)cc(O)c3c(=O)c2O)ccc1O [Isorhamnetin] | 70% |  | 18.1 µM | Effect on Ca^2+ intake [%] (Ca^2+ intake in the cell): +52.4% |
| O=c1cc(-c2ccc(O)c(O[C@@H]3O[C@H](CO)[C@@H](O)[C@H](O)[C@H]3O)c2)oc2cc(O[C@@H]3O[C@H](CO)[C@@H](O)[C@H](O)[C@H]3O)cc(O)c12 [Luteolin-3′,7-glucoside] | 45% |  |  | Effect on Ca^2+ intake [%] (Ca^2+ intake in the cell): −14.6% |
| O=c1cc(-c2ccc(O)c(O)c2)oc2cc(O[C@@H]3O[C@H](CO)[C@@H](O)[C@H](O)[C@H]3O)cc(O)c12 [Luteolin-7-glucoside] | 23% |  | 10.7 µM | Effect on Ca^2+ intake [%] (Ca^2+ intake in the cell): −16.3% |
| O=c1cc(-c2ccc(O)c(O)c2)oc2cc(O)cc(O)c12 [Luteolin] |  | 100% | 12 µM | inhibition at 20 µg/mL (Ca^2+ intake in the cell): 51.4% |
| COC(=O)c1cc(O)c(O)c(O)c1 [Methyl gallate] |  | 100% | 5.09 µM |  |
| O=C1C[C@@H](c2ccc(O)cc2)Oc2cc(O)cc(O)c21 [Naringenin] |  | 16% | > 3670 µM | inhibition at 20 µg/mL (Ca^2+ intake in the cell): 56.3% |
| C[C@@H]1O[C@@H](O[C@H]2[C@H](Oc3cc(O)c4c(c3)O[C@H](c3ccc(O)cc3)CC4=O)O[C@H](CO)[C@@H](O)[C@@H]2O)[C@H](O)[C@H](O)[C@H]1O [Naringin] | 66% |  |  | Effect on Ca^2+ intake [%] (Ca^2+ intake in the cell): +6.5% |
| Oc1cc(O)c2c(c1)O[C@H](c1ccc(O)c(O)c1)[C@H](O)[C@H]2c1c(O)cc(O)c2c1O[C@H](c1ccc(O)c(O)c1)[C@@H](O)C2 [Procyanidin B1] | 30% |  |  |  |
| Oc1cc(O)c2c(c1)O[C@H](c1ccc(O)c(O)c1)[C@H](O)[C@H]2c1c(O)cc(O)c2c1O[C@H](c1ccc(O)c(O)c1)[C@H](O)C2 [Procyanidin B2] | 0% |  |  |  |
| CCCOC(=O)c1cc(O)c(O)c(O)c1 [Propyl Gallate] |  | 100% | 13.3 µM | inhibition at 20 µg/mL (Ca^2+ intake in the cell): 37.9% |
| C[C@@H]1O[C@@H](Oc2c(-c3ccc(O)c(O)c3)oc3cc(O)cc(O)c3c2=O)[C@H](O)[C@H](O)[C@H]1O [Quercitrin] | 50% |  | 12.9 µM | Effect on Ca^2+ intake [%] (Ca^2+ intake in the cell): +20.1% |
| Oc1ccc(/C=C/c2cc(O)cc(O)c2)cc1 [Resveratrole] | 54% |  |  |  |
| C=C(C)[C@H]1Cc2c(ccc3c2O[C@@H]2COc4cc(OC)c(OC)cc4[C@@H]2C3=O)O1 [Rotenone] |  |  |  | inhibition at 50 µM (C. pneumoniae): 100% |
| COc1cc2ccc(=O)oc2cc1O [Scopoletin] |  | 96% |  |  |
| O=c1ccc2ccc(O)cc2o1 [Umbelliferone] |  | 75% |  |  |
| C[C@@H]1O[C@@H](O[C@@H]2[C@@H](O)[C@H](O)[C@@H](CO)O[C@H]2c2c(O)cc(O)c3c(=O)cc(-c4ccc(O)cc4)oc23)[C@H](O)[C@H](O)[C@H]1O [Vitexin-2″-O-rhamnoside] | 11% |  |  | Effect on Ca^2+ intake [%] (Ca^2+ intake in the cell): −14.6% |
| O=c1cc(-c2ccc(O)cc2)oc2c([C@@H]3O[C@H](CO)[C@@H](O)[C@H](O)[C@H]3O)c(O)cc(O)c12 [Vitexin] | 3% |  |  | Effect on Ca^2+ intake [%] (Ca^2+ intake in the cell): −2.12% |
| COc1c2occc2cc2ccc(=O)oc12 [Xanthotoxin] | 94% |  |  |  |
| Methoxy psoralen | 100% |  |  |  |
